In patent US20250163057A1, “DCN-1 MODULATING COMPOUNDS AND METHODS OF USE THEREOF” (Cellarity, Inc., priority 2023, published 2025):
Like-named read-outs stand apart in the source and are kept apart here.

Biological target: DCN1 (DCUND1) protein PONY domain (Homo sapiens (Human), UniProt Q96GG9)
Experiment: TR-FRET assay, DCN1 binding with FAM-labeled probe
Procedure: A TR-FRET assay was performed to evaluate the ability of the compounds to bind the DCN-1 protein.
The TR-FRET assay was designed following the Scott et al. protocol (Scott et al., Nat Chem Biol. 2017 August; 13(8): 850-857. Doi:10.1038/nchembio.2386). The recombinant form of the DCN1 (DCUND1) protein PONY domain was produced using an E. coli expression system at Viva Biotech (China). The DCN1 protein was biotinylated (EZ sulfo-NHS-LC-biotin; Thermofisher) for labeling with streptavidin terbium (Tb) cryptate in the reaction. The probe was changed to a non-covalent DCN1 inhibitor labeled with carboxyfluorescein (FAM; Zhou et al., Nat Commun. 2017; 8: 1150. Doi: 10.1038/s41467-017-01243-7). Buffer conditions were modified to enhance protein stability by exchanging Tween20 for TritonX and increasing NaCl to 200 mM. The compounds were screened against 5 nM DCN1 and 20 nM FAM-probe or 0.31 nM DCN1 and 900 nM total probe (100 nM FAM-labeled plus 800 nM unlabeled). The TR-FRET ratio between Tb-DCN1 and the FAM-labeled probe was measured in a 384-well opti-plate (Perkin Elmer) using a plate reader (BMG) at 1, 5, and 24 hrs after treatment with compound (final DMSO concentration of 0.1%).

[1] = 24 hr after treatment with compound, read-out: TR FRET IC50 24 hr
[2] = TR FRET IC50 1 hr (nM), 1 hr after treatment with compound

DCN1 (DCUND1) protein PONY domain, sequence (Q96GG9 60-248): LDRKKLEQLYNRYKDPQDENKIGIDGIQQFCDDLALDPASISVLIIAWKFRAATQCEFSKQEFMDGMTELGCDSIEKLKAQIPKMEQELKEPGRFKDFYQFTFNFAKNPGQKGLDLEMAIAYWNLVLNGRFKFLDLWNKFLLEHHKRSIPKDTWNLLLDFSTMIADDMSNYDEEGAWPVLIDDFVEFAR

Compound	IC50 [1] [nM]	IC50 [2] [nM]
CCN1C(=O)[C@@H](NC(=O)c2cccc(C(F)(F)F)c2)[C@@H](c2ccc(F)cc2)c2c(CN(C#N)CCF)nn(-c3ccccc3)c21 (racemic) [Compound I-61]	200 to 1000	200 to 1000
CCN1C(=O)[C@@H](NC(=O)c2cccc(C(F)(F)F)c2)[C@@H](c2ccc(F)cc2)c2c(NC(=O)C(C)(C)C#N)nn(-c3ccccc3)c21 (racemic) [Compound I-63]	200 to 1000	–
CCN1C(=O)[C@@H](NC(=O)c2cccc(C(F)(F)F)c2)[C@@H](c2ccc(F)cc2)c2c(CNC(=O)/C=C/C(N)=O)nn(-c3ccccc3)c21 (racemic) [Compound I-64, rac-N1-(((4R,5R)-7-ethyl-4-(4-fluorophenyl)-6-oxo-1-phenyl-5-(3-(trifluoromethyl)benzamido)-4,5,6,7-tetrahydro-1H-pyrazolo[3,4-b]pyridine-3-yl)methyl)fumaramide]	200 to 1000	1000 to 3000
CCN1C(=O)[C@@H](NC(=O)c2cccc(C(F)(F)F)c2)[C@@H](c2ccc(F)cc2)c2c(CNC(=O)C#CCN3CCOCC3)nn(-c3ccccc3)c21 (racemic) [Compound I-68, ˜{N}—[˜{rac}-(4˜{S},5˜{S})-7-ethyl-4-(4-fluorophenyl)-3-[(4-morpholinobut-2-ynoylamino)methyl]-6-oxo-1-phenyl-4,5-dihydropyrazolo[3,4-b]pyridine-5-yl]-3-(trifluoromethyl)benzamide]	200 to 1000	200 to 1000
CCN1C(=O)[C@@H](NC(=O)c2cccc(C(F)(F)F)c2)[C@@H](c2ccc(F)cc2)c2c(CC/C=C\C(=O)N(C)C)nn(-c3ccccc3)c21 (racemic) [Compound I-69]	200 to 1000	200 to 1000
CCN1C(=O)[C@@H](NC(=O)c2cccc(C(F)(F)F)c2)[C@@H](c2ccc(F)cc2)c2c(/C=C3/CCC(=O)N3)nn(-c3ccccc3)c21 (racemic) [Compound I-70, rac-N-((4R,5R)-7-ethyl-4-(4-fluorophenyl)-6-oxo-3-((Z)-(5-oxopyrrolidin-2-ylidene)methyl)-1-phenyl-4,5,6,7-tetrahydro-1H-pyrazolo[3,4-b]pyridin-5-yl)-3-(trifluoromethyl)benzamide]	1000 to 3000	1000 to 3000
CCN1C(=O)[C@@H](NC(=O)c2cccc(C(F)(F)F)c2)[C@H](c2ccc(F)cc2)c2c(CNC(=O)C3=C(C(=O)OC)CCC3)nn(-c3ccccc3)c21 (racemic) [Compound I-71]	200 to 1000	200 to 1000
C=C(Cc1nn(-c2ccccc2)c2c1[C@H](c1ccc(F)cc1)[C@H](NC(=O)c1cccc(C(F)(F)F)c1)C(=O)N2CC)C(=O)OC(C)(C)C (racemic) [Compound I-78, rac-tert-butyl 2-(((4R,5R)-7-ethyl-4-(4-fluorophenyl)-6-oxo-1-phenyl-5-(3-(trifluoromethyl)benzamido)-4,5,6,7-tetrahydro-1H-pyrazolo[3,4-b]pyridin-3-yl)methyl)acrylate]	1000 to 3000	1000 to 3000
CCN1C(=O)[C@@H](NC(=O)c2cccc(C(F)(F)F)c2)[C@@H](c2ccc(F)cc2)c2c(C(=O)NCCC#N)nn(-c3ccccc3)c21 (racemic) [Compound I-81, rac-(4R,5R)—N-(2-cyanoethyl)-7-ethyl-4-(4-fluorophenyl)-6-oxo-1-phenyl-5-(3-(trifluoromethyl)benzamido)-4,5,6,7-tetrahydro-1H-pyrazolo[3,4-b]pyridine-3-carboxamide]	1000 to 3000	1000 to 3000
CCN1C(=O)[C@H](NC(=O)c2cccc(C(F)(F)F)c2)[C@H](c2ccc(F)cc2)c2c(CNC(=O)C3=CCN(C)C3)nn(-c3ccccc3)c21 (racemic) [Compound I-86, rac-N-(((4R,5R)-7-ethyl-4-(4-fluorophenyl)-6-oxo-1-phenyl-5-(3-(trifluoromethyl)benzamido)-4,5,6,7-tetrahydro-1H-pyrazolo[3,4-b]pyridin-3-yl)methyl)-1-methyl-2,5-dihydro-1H-pyrrole-3-carboxamide]	200 to 1000	200 to 1000
CCN1C(=O)[C@@H](NC(=O)c2cccc(C(F)(F)F)c2)[C@@H](c2ccc(F)cc2)c2c(CC/C=C/C(=O)NC)nn(-c3ccccc3)c21 (racemic) [Compound I-91]	200 to 1000	200 to 1000
CCN1C(=O)[C@@H](NC(=O)c2cccc(C(F)(F)F)c2)[C@@H](c2ccc(F)cc2)c2c(NC(=O)C#CCN(C)C)nn(-c3ccccc3)c21 (racemic) [Compound I-93, rac-N-((4R,5R)-3-(4-(dimethylamino)but-2-ynamido)-7-ethyl-4-(4-fluorophenyl)-6-oxo-1-phenyl-4,5,6,7-tetrahydro-1H-pyrazolo[3,4-b]pyridine-5-yl)-3-(trifluoromethyl)benzamide]	≤ 200	≤ 200
C=C(CN1CC(F)(F)C1)C(=O)NCc1nn(-c2ccccc2)c2c1[C@H](c1ccc(F)cc1)[C@H](NC(=O)c1cccc(C(F)(F)F)c1)C(=O)N2CC (racemic) [Compound I-95]	200 to 1000	200 to 1000
CCN1C(=O)[C@@H](NC(=O)c2cccc(C(F)(F)F)c2)[C@@H](c2ccc(F)cc2)c2c(CNCC#N)nn(-c3ccccc3)c21 (racemic) [Compound I-96, rac-N-((4R,5R)-3-(((cyanomethyl)amino)methyl)-7-ethyl-4-(4-fluorophenyl)-6-oxo-1-phenyl-4,5,6,7-tetrahydro-1H-pyrazolo[3,4-b]pyridine-5-yl)-3-(trifluoromethyl)benzamide]	200 to 1000	200 to 1000
CCN1C(=O)[C@@H](NC(=O)c2cccc(C(F)(F)F)c2)[C@@H](C2CC2)c2c(CNC#N)nn(-c3ccccc3)c21 (racemic) [Compound I-98]	≤ 200	200 to 1000
CCN1C(=O)[C@@H](NC(=O)c2cccc(C(F)(F)F)c2)[C@@H](c2ccc(F)cc2)c2c(C/C=C/C(=O)NCCCN(C)C)nn(-c3ccccc3)c21 (racemic) [Compound I-99]	200 to 1000	200 to 1000
CCN1C(=O)[C@@H](NC(=O)c2cccc(C(F)(F)F)c2)[C@@H](c2ccc(F)cc2)c2c(CNC(=O)C3(C#N)COC3)nn(-c3ccccc3)c21 (racemic) [Compound I-100, rac-3-cyano-N-(((4R,5R)-7-ethyl-4-(4-fluorophenyl)-6-oxo-1-phenyl-5-(3-(trifluoromethyl)benzamido)-4,5,6,7-tetrahydro-1H-pyrazolo[3,4-b]pyridine-3-yl)methyl)oxetane-3-carboxamide]	200 to 1000	200 to 1000
C=C(Cc1nn(-c2ccccc2)c2c1[C@H](c1ccc(F)cc1)[C@H](NC(=O)c1cccc(C(F)(F)F)c1)C(=O)N2CC)C(N)=O (racemic) [Compound I-105, rac-N-((4R,5R)-3-(2-carbamoylallyl)-7-ethyl-4-(4-fluorophenyl)-6-oxo-1-phenyl-4,5,6,7-tetrahydro-1H-pyrazolo[3,4-b]pyridin-5-yl)-3-(trifluoromethyl)benzamide]	200 to 1000	200 to 1000
CCN1C(=O)[C@@H](NC(=O)c2cccc(C(F)(F)F)c2)[C@@H](c2ccc(F)cc2)c2c(NC(=O)C(F)Cl)nn(-c3ccccc3)c21 (mixture of isomers) [Compound I-120]	200 to 1000	200 to 1000
CCN1C(=O)[C@@H](NC(=O)c2cccc(C(F)(F)F)c2)[C@@H](c2ccc(F)cc2)c2c(CC/C=C\C(=O)O)nn(-c3ccccc3)c21 (racemic) [Compound I-126, rac-(Z)-5-((4R,5R)-7-ethyl-4-(4-fluorophenyl)-6-oxo-1-phenyl-5-(3-(trifluoromethyl)benzamido)-4,5,6,7-tetrahydro-1H-pyrazolo[3,4-b]pyridin-3-yl)pent-2-enoic acid]	200 to 1000	200 to 1000
CCN1C(=O)[C@@H](NC(=O)c2cccc(C(F)(F)F)c2)[C@@H](c2ccc(F)cc2)c2c(CC/C=C/C(=O)OC)nn(-c3ccccc3)c21 (racemic) [Compound I-128, rac-methyl (E)-5-((4R,5R)-7-ethyl-4-(4-fluorophenyl)-6-oxo-1-phenyl-5-(3-(trifluoromethyl)benzamido)-4,5,6,7-tetrahydro-1H-pyrazolo[3,4-b]pyridin-3-yl)pent-2-enoate]	200 to 1000	1000 to 3000
CCN1C(=O)[C@@H](NC(=O)c2cccc(C(F)(F)F)c2)[C@@H](c2ccc(F)cc2)c2c(CC/C=C/C(=O)O)nn(-c3ccccc3)c21 (racemic) [Compound I-134, rac-(E)-5-((4R,5R)-7-ethyl-4-(4-fluorophenyl)-6-oxo-1-phenyl-5-(3-(trifluoromethyl)benzamido)-4,5,6,7-tetrahydro-1H-pyrazolo[3,4-b]pyridin-3-yl)pent-2-enoic acid]	200 to 1000	200 to 1000
CCN1C(=O)[C@@H](NC(=O)c2cccc(C(F)(F)F)c2)[C@@H](c2ccc(F)cc2)c2c(CC/C=C\C(N)=O)nn(-c3ccccc3)c21 (racemic) [Compound I-142]	200 to 1000	200 to 1000
CCN1C(=O)[C@@H](NC(=O)c2cccc(C(F)(F)F)c2)[C@@H](c2ccc(F)cc2)c2c(C(C)(C)NC#N)nn(-c3ccccc3)c21 (racemic) [Compound I-144, rac-N-((4R,5R)-3-(2-cyanamidopropan-2-yl)-7-ethyl-4-(4-fluorophenyl)-6-oxo-1-phenyl-4,5,6,7-tetrahydro-1H-pyrazolo[3,4-b]pyridin-5-yl)-3-(trifluoromethyl)benzamide]	200 to 1000	1000 to 3000
